{"source": "paper PMC12396409", "about": "“Screening and hit evaluation of a microbial metabolite library against the pathogenic Plasmodium falciparum and Toxoplasma gondii parasites” (International Journal for Parasitology: Drugs and Drug …, 2025)", "key": {"[1]": {"tested_on": "P. falciparum 3D7 parasites", "assay": "P. falciparum growth inhibition assay, 2-cycle (120 h treatment), delayed-death screen and dose-response", "type": "cell-based, Plasmodium falciparum", "details": "for activity at 2 µg/mL: Plasmodium falciparum"}, "[2]": {"tested_on": "P. falciparum 3D7 parasites", "assay": "P. falciparum growth inhibition assay, 1-cycle (72 h treatment), SYBR DNA staining (library screen at 2 μg/mL and dose-response)", "type": "cell-based, Plasmodium falciparum", "details": "for activity at 2 µg/mL: Plasmodium falciparum"}, "[3]": {"tested_on": "T. gondii RH strain (RH-Tub-eYFP) tachyzoites", "assay": "microbe, parasite or virus in culture", "type": "cell-based, Toxoplasma gondii", "details": "72 h, 72 h; for percent parasite growth at 2 µg/mL: Toxoplasma gondii"}, "[4]": {"details": "T. gondii, screen at 2 μg/mL, replicate 1, read-out: Tg_72h_%Growth_Rep1"}, "[5]": {"details": "T. gondii, screen at 2 μg/mL, replicate 2, read-out: Tg_72h_%Growth_Rep2"}, "[6]": {"details": "library screen at 2 μg/mL, % growth, replicate 1, read-out: Tg_72h_%Growth_Rep1"}, "[7]": {"details": "library screen at 2 μg/mL, % growth, replicate 2, read-out: Tg_72h_%Growth_Rep2"}}, "note": "Read-outs that look alike come from different tables or passages of the source.", "data": [{"molecule": "C[C@H]1CCCC(=O)CCCCCc2cc(O)cc(O)c2C(=O)O1", "note": "[Zearalanone]", "values": [{"measurement": "activity at 2 µg/mL", "setting": "[1]; 3D7, 120 h, P. falciparum, 120 h, screen at 2 μg/mL, replicate 1, read-out: Pf_120h_%Growth_Rep1", "value": 102, "unit": "%"}, {"measurement": "activity at 2 µg/mL", "setting": "[1]; 3D7, 120 h, P. falciparum, 120 h, screen at 2 μg/mL, replicate 2, read-out: Pf_120h_%Growth_Rep2", "value": 77.7, "unit": "%"}, {"measurement": "activity at 2 µg/mL", "setting": "[2]; 3D7, 72 h, P. falciparum, 72 h, screen at 2 μg/mL, replicate 1, read-out: Pf_72h_%Growth_Rep1", "value": 31.9, "unit": "%"}, {"measurement": "activity at 2 µg/mL", "setting": "[2]; 3D7, 72 h, P. falciparum, 72 h, screen at 2 μg/mL, replicate 2, read-out: Pf_72h_%Growth_Rep2", "value": 78.2, "unit": "%"}, {"measurement": "percent parasite growth at 2 µg/mL", "setting": "[3]; [4]", "value": 97, "unit": "%"}, {"measurement": "percent parasite growth at 2 µg/mL", "setting": "[3]; [5]", "value": 107, "unit": "%"}]}, {"molecule": "CC[C@H](C)[C@H]1O[C@]2(C=C[C@@H]1C)C[C@@H]1C[C@@H](C/C=C(\\C)[C@@H](O[C@H]3C[C@H](OC)[C@@H](O[C@H]4C[C@H](OC)[C@@H](O)[C@H](C)O4)[C@H](C)O3)[C@@H](C)/C=C/C=C3\\CO[C@@H]4[C@H](O)C(C)=C[C@@H](C(=O)O1)[C@]34O)O2", "note": "[Avermectin B1a]", "values": [{"measurement": "activity at 2 µg/mL", "setting": "[1]; 3D7, library screen at 2 μg/mL, 120 h, % growth, replicate 1, read-out: Pf_120h_%Growth_Rep1", "value": 3.33, "unit": "%"}, {"measurement": "activity at 2 µg/mL", "setting": "[1]; 3D7, library screen at 2 μg/mL, 120 h, % growth, replicate 2, read-out: Pf_120h_%Growth_Rep2", "value": 5.47, "unit": "%"}, {"measurement": "activity at 2 µg/mL", "setting": "[2]; 3D7, library screen at 2 μg/mL, 72 h, % growth, replicate 1, read-out: Pf_72h_%Growth_Rep1", "value": 3.24, "unit": "%"}, {"measurement": "activity at 2 µg/mL", "setting": "[2]; 3D7, library screen at 2 μg/mL, 72 h, % growth, replicate 2, read-out: Pf_72h_%Growth_Rep2", "value": 3.85, "unit": "%"}, {"measurement": "percent parasite growth at 2 µg/mL", "setting": "[3]; [6]", "value": 81.9, "unit": "%"}, {"measurement": "percent parasite growth at 2 µg/mL", "setting": "[3]; [7]", "value": 76.2, "unit": "%"}]}, {"molecule": "CC(=O)C1C(C)=CC(=O)c2c1c(-c1c3c(c(O)c4c(O)cccc14)C(=O)CC(C)(O)C3C(C)=O)c1cccc(O)c1c2O", "note": "(stereo not drawn) [Setomimycin]", "values": [{"measurement": "Pf_120h_%Growth_Rep1", "setting": "[1]; P. falciparum, 120 h, parasite screen 2 μg/mL, % growth, replicate 1", "value": 7.52, "unit": "%"}, {"measurement": "Pf_120h_%Growth_Rep2", "setting": "[1]; P. falciparum, 120 h, parasite screen 2 μg/mL, % growth, replicate 2", "value": 6.30, "unit": "%"}, {"measurement": "Pf_72h_%Growth_Rep1", "setting": "[2]; P. falciparum, 72 h, parasite screen 2 μg/mL, % growth, replicate 1", "value": 8.25, "unit": "%"}, {"measurement": "Pf_72h_%Growth_Rep2", "setting": "[2]; P. falciparum, 72 h, parasite screen 2 μg/mL, % growth, replicate 2", "value": 3.46, "unit": "%"}, {"measurement": "Tg_72h_%Growth_Rep1", "setting": "[3]; T. gondii, parasite screen 2 μg/mL, % growth, replicate 1", "value": 70.47, "unit": "%"}, {"measurement": "Tg_72h_%Growth_Rep2", "setting": "[3]; T. gondii, parasite screen 2 μg/mL, % growth, replicate 2", "value": 40.70, "unit": "%"}]}, {"molecule": "Capreomycin sulfate", "values": [{"measurement": "Pf_120h_%Growth_Rep1", "setting": "[1]; P. falciparum, 120 h, screen at 2 μg/mL, replicate 1", "value": 94.57, "unit": "%"}, {"measurement": "Pf_120h_%Growth_Rep2", "setting": "[1]; P. falciparum, 120 h, screen at 2 μg/mL, replicate 2", "value": 87.91, "unit": "%"}, {"measurement": "Pf_72h_%Growth_Rep1", "setting": "[2]; P. falciparum, 72 h, screen at 2 μg/mL, replicate 1", "value": 82.18, "unit": "%"}, {"measurement": "Pf_72h_%Growth_Rep2", "setting": "[2]; P. falciparum, 72 h, screen at 2 μg/mL, replicate 2", "value": 86.69, "unit": "%"}, {"measurement": "Tg_72h_%Growth_Rep1", "setting": "[3]; T. gondii, screen at 2 μg/mL, replicate 1", "value": 114.86, "unit": "%"}, {"measurement": "Tg_72h_%Growth_Rep2", "setting": "[3]; T. gondii, screen at 2 μg/mL, replicate 2", "value": 91.40, "unit": "%"}]}, {"molecule": "O=C(O)/C=C/c1ccccc1", "note": "[Cinnamic acid]", "values": [{"measurement": "activity at 2 µg/mL", "setting": "[1]; 3D7, P. falciparum, 120 h, screen at 2 μg/mL, replicate 1, read-out: Pf_120h_%Growth_Rep1", "value": 147, "unit": "%"}, {"measurement": "activity at 2 µg/mL", "setting": "[1]; 3D7, P. falciparum, 120 h, screen at 2 μg/mL, replicate 2, read-out: Pf_120h_%Growth_Rep2", "value": 102, "unit": "%"}, {"measurement": "activity at 2 µg/mL", "setting": "[2]; 3D7, P. falciparum, 72 h, screen at 2 μg/mL, replicate 1, read-out: Pf_72h_%Growth_Rep1", "value": 90.3, "unit": "%"}, {"measurement": "activity at 2 µg/mL", "setting": "[2]; 3D7, P. falciparum, 72 h, screen at 2 μg/mL, replicate 2, read-out: Pf_72h_%Growth_Rep2", "value": 87.8, "unit": "%"}, {"measurement": "percent parasite growth at 2 µg/mL", "setting": "[3]; [4]", "value": 86.5, "unit": "%"}, {"measurement": "percent parasite growth at 2 µg/mL", "setting": "[3]; [5]", "value": 96.7, "unit": "%"}]}, {"molecule": "COC(=O)C1(O)CC2OC1(C)n1c3ccccc3c3c4c(c5c6ccccc6n2c5c31)CNC4=O", "note": "(stereo not drawn) [BIA-K1225]", "values": [{"measurement": "Pf_120h_%Growth_Rep1", "setting": "[1]; P. falciparum 3D7, 120 h, library screen at 2 μg/mL, % growth, replicate 1", "value": 29.46, "unit": "%"}, {"measurement": "Pf_120h_%Growth_Rep2", "setting": "[1]; P. falciparum 3D7, 120 h, library screen at 2 μg/mL, % growth, replicate 2", "value": 12.07, "unit": "%"}, {"measurement": "Pf_72h_%Growth_Rep1", "setting": "[2]; P. falciparum 3D7, 72 h, library screen at 2 μg/mL, % growth, replicate 1", "value": 4.93, "unit": "%"}, {"measurement": "Pf_72h_%Growth_Rep2", "setting": "[2]; P. falciparum 3D7, 72 h, library screen at 2 μg/mL, % growth, replicate 2", "value": 0.48, "unit": "%"}, {"measurement": "Tg_72h_%Growth_Rep1", "setting": "[3]; T. gondii RH, library screen at 2 μg/mL, % growth, replicate 1", "value": -1.01, "unit": "%"}, {"measurement": "Tg_72h_%Growth_Rep2", "setting": "[3]; T. gondii RH, library screen at 2 μg/mL, % growth, replicate 2", "value": 0.85, "unit": "%"}]}, {"molecule": "CC[C@H]1OC(=O)[C@H](C)[C@@H](O[C@H]2C[C@@](C)(OC)[C@@H](O)[C@H](C)O2)[C@H](C)[C@@H](O[C@@H]2O[C@H](C)C[C@H](N(C)C)[C@H]2O)[C@](C)(O)C[C@@H](C)[C@@H]2N[C@@H](COCCOC)O[C@H]([C@H]2C)[C@]1(C)O", "note": "[Dirithromycin]", "values": [{"measurement": "activity at 2 µg/mL", "setting": "[1]; 3D7, 120 h, library screen at 2 μg/mL, 120 h, % growth, replicate 1, read-out: Pf_120h_%Growth_Rep1", "value": 62.1, "unit": "%"}, {"measurement": "activity at 2 µg/mL", "setting": "[1]; 3D7, 120 h, library screen at 2 μg/mL, 120 h, % growth, replicate 2, read-out: Pf_120h_%Growth_Rep2", "value": 48.4, "unit": "%"}, {"measurement": "activity at 2 µg/mL", "setting": "[2]; 3D7, 72 h, library screen at 2 μg/mL, 72 h, % growth, replicate 1, read-out: Pf_72h_%Growth_Rep1", "value": 80.4, "unit": "%"}, {"measurement": "activity at 2 µg/mL", "setting": "[2]; 3D7, 72 h, library screen at 2 μg/mL, 72 h, % growth, replicate 2, read-out: Pf_72h_%Growth_Rep2", "value": 73.2, "unit": "%"}, {"measurement": "percent parasite growth at 2 µg/mL", "setting": "[3]; [6]", "value": 67.5, "unit": "%"}, {"measurement": "percent parasite growth at 2 µg/mL", "setting": "[3]; [7]", "value": 74.8, "unit": "%"}]}, {"molecule": "CC[C@H]1OC(=O)[C@H](C)[C@@H](O[C@H]2C[C@@](C)(OC)[C@@H](O)[C@H](C)O2)[C@H](C)[C@@H](O[C@@H]2O[C@H](C)C[C@H](N(C)C)[C@H]2O)[C@](C)(O)C[C@@H](C)C(=NO)[C@H](C)[C@@H](O)[C@]1(C)O", "note": "[Erythromycin A oxime]", "values": [{"measurement": "Pf_120h_%Growth_Rep1", "setting": "[1]; library screen at 2 μg/mL, 120 h, % growth, replicate 1", "value": 78.37, "unit": "%"}, {"measurement": "Pf_120h_%Growth_Rep2", "setting": "[1]; library screen at 2 μg/mL, 120 h, % growth, replicate 2", "value": 65.13, "unit": "%"}, {"measurement": "Pf_72h_%Growth_Rep1", "setting": "[2]; library screen at 2 μg/mL, 72 h, % growth, replicate 1", "value": 85.19, "unit": "%"}, {"measurement": "Pf_72h_%Growth_Rep2", "setting": "[2]; library screen at 2 μg/mL, 72 h, % growth, replicate 2", "value": 75.74, "unit": "%"}, {"measurement": "Tg_72h_%Growth_Rep1", "setting": "[3]; library screen at 2 μg/mL, % growth, replicate 1", "value": 42.42, "unit": "%"}, {"measurement": "Tg_72h_%Growth_Rep2", "setting": "[3]; library screen at 2 μg/mL, % growth, replicate 2", "value": 49.55, "unit": "%"}]}]}
